Measured values taken from ChEMBL document CHEMBL5500358, “Identification of CH2-linked quinolone-aminopyrimidine hybrids as potent anti-MRSA agents: Low resistance potential and lack of cross-resistance with fluoroquinolone antibiotics” (Eur J Med Chem, 2024).
pIC50: −log10 of the molar value. Values after ≈ are worked out from the molar mass of the structure shown.

Experiments:
[1] = Metabolic stability in human liver microsomes assessed as elimination half life at 1 uM by LC-MS/MS analysis; assay type: ADME, Microsome; conditions: read-out: beta t1/2
[2] = Cmax in male Sprague-Dawley rat at 20 mg/kg, po administered as single dose and measured upto 24 hrs by LC-MS/MS analysis; assay type: ADME, organism-based; conditions: in vivo
[3] = Acute toxicity in male ICR mouse assessed as effect on body weight at 400 to 2000 mg/kg, po administered as single dose via oral gavage and measured for 8 days; assay type: organism-based; conditions: in vivo, 192 h, dose 400-2000 mg/kg, time 8 day
[4] = Metabolic stability in human liver microsomes assessed as compound remaining at 1 uM measured after 60 mins by LC-MS/MS analysis; assay type: ADME, Microsome; conditions: read-out: Stability
[5] = Metabolic stability in human liver microsomes assessed as liver intrinsic clearance at 1 uM by LC-MS/MS analysis; assay type: ADME, Microsome; conditions: read-out: CLH
[6] = AUC (0 to t) in male Sprague-Dawley rat at 10 mg/kg, iv administered as single dose and measured upto 24 hrs by LC-MS/MS analysis; assay type: ADME, organism-based; conditions: in vivo
Staphylococcus aureus [7] = assay: Antibacterial activity against methicillin resistant Staphylococcus aureus ATCC 33591 measured after 15 passages; assay type: functional
[8] = molecular target: Voltage-gated inwardly rectifying potassium channel KCNH2 (Homo sapiens, UniProt Q12809); assay: Inhibition of hERG expressed in CHO cells at -80 mV holding potential by manual patch clamp method; assay type: toxicity, cell-based
Chain of Voltage-gated inwardly rectifying potassium channel KCNH2 (Q12809 whole entry): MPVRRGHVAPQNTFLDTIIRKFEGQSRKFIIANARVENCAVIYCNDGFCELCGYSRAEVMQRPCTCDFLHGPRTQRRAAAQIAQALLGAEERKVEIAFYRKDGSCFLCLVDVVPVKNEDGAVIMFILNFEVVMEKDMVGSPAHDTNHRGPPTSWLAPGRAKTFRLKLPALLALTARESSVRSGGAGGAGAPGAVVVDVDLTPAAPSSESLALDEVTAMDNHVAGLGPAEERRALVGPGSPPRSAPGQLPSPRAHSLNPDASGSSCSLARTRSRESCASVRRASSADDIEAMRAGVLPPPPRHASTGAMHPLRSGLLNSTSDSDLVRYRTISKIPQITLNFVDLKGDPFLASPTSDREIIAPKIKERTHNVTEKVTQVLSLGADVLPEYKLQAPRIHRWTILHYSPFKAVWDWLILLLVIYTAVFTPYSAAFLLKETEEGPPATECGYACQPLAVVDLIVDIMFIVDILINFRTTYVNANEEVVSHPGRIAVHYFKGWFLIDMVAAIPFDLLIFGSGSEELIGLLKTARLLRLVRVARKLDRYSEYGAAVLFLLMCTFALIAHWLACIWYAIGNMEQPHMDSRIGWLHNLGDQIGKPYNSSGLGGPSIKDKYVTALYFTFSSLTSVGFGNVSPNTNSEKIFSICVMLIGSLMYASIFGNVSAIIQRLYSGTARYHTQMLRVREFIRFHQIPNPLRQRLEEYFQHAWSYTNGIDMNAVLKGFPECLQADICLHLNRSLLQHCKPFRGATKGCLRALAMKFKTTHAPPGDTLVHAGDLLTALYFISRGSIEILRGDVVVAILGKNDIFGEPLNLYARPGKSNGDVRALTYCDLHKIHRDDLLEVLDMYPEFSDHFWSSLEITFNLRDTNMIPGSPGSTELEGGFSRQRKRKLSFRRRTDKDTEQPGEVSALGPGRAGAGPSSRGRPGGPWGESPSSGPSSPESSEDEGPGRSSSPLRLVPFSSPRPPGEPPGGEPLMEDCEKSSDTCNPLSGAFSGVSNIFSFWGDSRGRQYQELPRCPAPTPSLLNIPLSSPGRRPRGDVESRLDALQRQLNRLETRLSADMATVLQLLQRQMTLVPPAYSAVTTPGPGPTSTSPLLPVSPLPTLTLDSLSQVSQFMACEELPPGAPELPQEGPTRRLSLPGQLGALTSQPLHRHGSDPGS

[9] = Acute toxicity in ICR mouse assessed as brain damage at 400 to 2000 mg/kg, po administered as single dose via oral gavage and measured on day 9; assay type: organism-based; conditions: in vivo, 216 h, dose 400-2000 mg/kg, time 9 day
[10] = Acute toxicity in ICR mouse assessed as liver damage at 400 to 2000 mg/kg, po administered as single dose via oral gavage and measured on day 9; assay type: organism-based; conditions: in vivo, 216 h, dose 400-2000 mg/kg, time 9 day
[11] = Metabolic stability in rat liver microsomes assessed as elimination half life at 1 uM by LC-MS/MS analysis; assay type: ADME, Microsome; conditions: read-out: beta t1/2
Escherichia coli = assay: Antibacterial activity against Escherichia coli ATCC 25922 incubated for 16 to 18 hrs by absorbance based analysis; assay type: functional; conditions: time 16-18 hrs
[12] = Clearance in male Sprague-Dawley rat at 10 mg/kg, iv administered as single dose and measured upto 24 hrs by LC-MS/MS analysis; assay type: ADME, organism-based; conditions: in vivo
[13] = Metabolic stability in rat liver microsomes assessed as microsomal intrinsic clearance at 1 uM by LC-MS/MS analysis; assay type: ADME, Microsome; conditions: read-out: CLH
[14] = Oral bioavailability in male Sprague-Dawley rat at 20 mg/kg administered as single dose and measured upto 24 hrs by LC-MS/MS analysis; assay type: ADME, organism-based; conditions: in vivo
[15] = Acute toxicity in ICR mouse assessed as kidney damage at 400 to 2000 mg/kg, po administered as single dose via oral gavage and measured on day 9; assay type: organism-based; conditions: in vivo, 216 h, dose 400-2000 mg/kg, time 9 day
[16] = Acute toxicity in ICR mouse assessed as heart damage at 400 to 2000 mg/kg, po administered as single dose via oral gavage and measured on day 9; assay type: organism-based; conditions: in vivo, 216 h, dose 400-2000 mg/kg, time 9 day
[17] = Acute toxicity in ICR mouse assessed as effect on food intake at 400 to 2000 mg/kg, po administered as single dose via oral gavage and measured for 8 days; assay type: organism-based; conditions: in vivo, 192 h, dose 400-2000 mg/kg, time 8 day
[18] = Metabolic stability in human liver microsomes assessed as drug elimination rate constant at 1 uM by LC-MS/MS analysis; assay type: ADME, Microsome
A549 = assay: Cytotoxicity against human A549 cells assessed as reduction in cell viability at 100 uM incubated for 24 hrs by CCK-8 assay; assay type: toxicity, cell-based; conditions: a549, 24 h
[19] = Metabolic stability in rat liver microsomes assessed as compound remaining at 1 uM measured after 60 mins by LC-MS/MS analysis; assay type: ADME, Microsome; conditions: read-out: Stability
[20] = Acute toxicity in ICR mouse assessed as lung damage at 400 to 2000 mg/kg, po administered as single dose via oral gavage and measured on day 9; assay type: organism-based; conditions: in vivo, 216 h, dose 400-2000 mg/kg, time 9 day
[21] = AUC (0 to infinity) in male Sprague-Dawley rat at 10 mg/kg, iv administered as single dose and measured upto 24 hrs by LC-MS/MS analysis; assay type: ADME, organism-based; conditions: in vivo
Staphylococcus aureus [22] = assay: Antibacterial activity against fluoroquinolone/methicillin resistant Staphylococcus aureus Mu50 incubated for 16 to 18 hrs by absorbance based analysis; assay type: functional; conditions: time 16-18 hrs
[23] = MRT (0 to t) in male Sprague-Dawley rat at 10 mg/kg, iv administered as single dose and measured upto 24 hrs by LC-MS/MS analysis; assay type: ADME, organism-based; conditions: in vivo
[24] = MRT (0 to infinity) in male Sprague-Dawley rat at 10 mg/kg, iv administered as single dose and measured upto 24 hrs by LC-MS/MS analysis; assay type: ADME, organism-based; conditions: in vivo
[25] = Acute toxicity in ICR mouse assessed as animal death at 400 to 2000 mg/kg, po administered as single dose via oral gavage and measured for 8 days; assay type: organism-based; conditions: in vivo, 192 h, dose 400-2000 mg/kg, time 8 day
[26] = Acute toxicity in ICR mouse assessed as abnormal behaviors at 400 to 2000 mg/kg, po administered as single dose via oral gavage and measured for 8 days; assay type: organism-based; conditions: in vivo, 192 h, dose 400-2000 mg/kg, time 8 day
[27] = Metabolic stability in rat liver microsomes assessed as drug elimination rate constant at 1 uM by LC-MS/MS analysis; assay type: ADME, Microsome
Staphylococcus aureus [28] = assay: Antibacterial activity against fluoroquinolone-sensitive methicillin resistant Staphylococcus aureus ATCC 33591 incubated for 16 to 18 hrs by absorbance based analysis; assay type: functional; conditions: time 16-18 hrs
[29] = Metabolic stability in human liver microsomes assessed as microsomal intrinsic clearance at 1 uM by LC-MS/MS analysis; assay type: ADME, Microsome; conditions: read-out: CLH
Staphylococcus aureus [30] = assay: Antibacterial activity against fluoroquinolone-sensitive methicillin resistant Staphylococcus aureus USA500 incubated for 16 to 18 hrs by absorbance based analysis; assay type: functional; conditions: time 16-18 hrs
[31] = Half life in male Sprague-Dawley rat at 10 mg/kg, iv administered as single dose and measured upto 24 hrs by LC-MS/MS analysis; assay type: ADME, organism-based; conditions: in vivo
[32] = AUC (0 to infinity) in male Sprague-Dawley rat at 20 mg/kg, po administered as single dose and measured upto 24 hrs by LC-MS/MS analysis; assay type: ADME, organism-based; conditions: in vivo
[33] = Metabolic stability in rat liver microsomes assessed as liver intrinsic clearance at 1 uM by LC-MS/MS analysis; assay type: ADME, Microsome; conditions: read-out: CLH
[34] = Acute toxicity in ICR mouse assessed as spleen damage at 400 to 2000 mg/kg, po administered as single dose via oral gavage and measured on day 9; assay type: organism-based; conditions: in vivo, 216 h, dose 400-2000 mg/kg, time 9 day
[35] = Tmax in male Sprague-Dawley rat at 20 mg/kg, po administered as single dose and measured upto 24 hrs by LC-MS/MS analysis; assay type: ADME, organism-based; conditions: in vivo
[36] = MRT (0 to infinity) in male Sprague-Dawley rat at 20 mg/kg, po administered as single dose and measured upto 24 hrs by LC-MS/MS analysis; assay type: ADME, organism-based; conditions: in vivo
[37] = AUC (0 to t) in male Sprague-Dawley rat at 20 mg/kg, po administered as single dose and measured upto 24 hrs by LC-MS/MS analysis; assay type: ADME, organism-based; conditions: in vivo
HEK293 = assay: Cytotoxicity against HEK293 cells assessed as reduction in cell viability at 100 uM incubated for 24 hrs by CCK-8 assay; assay type: toxicity, cell-based; conditions: human, hek293, 24 h
[38] = Initial drug concentration in male Sprague-Dawley rat at 10 mg/kg, iv administered as single dose and measured upto 24 hrs by LC-MS/MS analysis; assay type: ADME, organism-based; conditions: in vivo
[39] = MRT (0 to t) in male Sprague-Dawley rat at 20 mg/kg, po administered as single dose and measured upto 24 hrs by LC-MS/MS analysis; assay type: ADME, organism-based; conditions: in vivo
[40] = Acute toxicity in female ICR mouse assessed as effect on body weight at 400 to 2000 mg/kg, po administered as single dose via oral gavage and measured for 8 days; assay type: organism-based; conditions: in vivo, 192 h, dose 400-2000 mg/kg, time 8 day
[41] = Half life in male Sprague-Dawley rat at 20 mg/kg, po administered as single dose and measured upto 24 hrs by LC-MS/MS analysis; assay type: ADME, organism-based; conditions: in vivo

SMILES: O=C(O)c1cn(C2CC2)c2cc(Nc3nccc(Cc4ccc(F)cc4F)n3)ccc2c1=O
- half-life at 1 µM [1]: 0.75 h
- Cmax [2]: 31 ng/mL
- Activity [3]: Non-Toxic
- remaining at 1 h, 1 µM [4]: 40.9%
- CLint scaled at 1 µM [5]: 29.1 mL/min/kg
- AUC(0-t) at 24 h [6]: 9060 ng·h/mL
- MIC (Staphylococcus aureus [7]): 0.25 µg/mL (≈ 0.558 µM)
- pIC50 [8]: < 4.40
- Activity [9]: Non-Toxic
- Activity [10]: Non-Toxic
- half-life at 1 µM [11]: 0.683 h
- MIC (Escherichia coli): > 64 µg/mL
- clearance [12]: 18.5 mL/min/kg
- microsomal CLint at 1 µM [13]: 33.8 µL/min/mg
- bioavailability [14]: 0.9%
- Activity [15]: Non-Toxic
- Activity [16]: Non-Toxic
- Activity [17]: Non-Toxic
- k el at 1 µM [18]: 0.00025 s⁻¹
- Activity (A549): Non-Toxic
- remaining at 1 h, 1 µM [19]: 35.7%
- Activity [20]: Non-Toxic
- AUC(0-inf) [21]: 9100 ng·h/mL
- MIC (Staphylococcus aureus [22]): 0.39 µg/mL (≈ 0.87 µM)
- MRT last at 24 h [23]: 1.01 h
- MRT inf [24]: 1.2 h
- Activity [25]: Non-Toxic
- Activity [26]: Non-Toxic
- k el at 1 µM [27]: 0.000283 s⁻¹
- MIC (Staphylococcus aureus [28]): 0.25 µg/mL (≈ 0.558 µM)
- microsomal CLint at 1 µM [29]: 30.8 µL/min/mg
- MIC (Staphylococcus aureus [30]): 0.39 µg/mL (≈ 0.87 µM)
- half-life [31]: 4.23 h
- AUC(0-inf) [32]: 171 ng·h/mL
- CLint scaled at 1 µM [33]: 60.9 mL/min/kg
- Activity [34]: Non-Toxic
- Tmax [35]: 2.67 h
- MRT inf [36]: 4.2 h
- AUC(0-t) at 24 h [37]: 162 ng·h/mL
- Activity (HEK293): Non-Toxic
- C0 at 24 h [38]: 11800 ng/mL
- MRT last at 24 h [39]: 3.51 h
- Activity [40]: Non-Toxic
- half-life [41]: 2.16 h
